Laboratory results published in patent US12022831B2, “Synergistic weed control from applications of aminopyralid and clopyralid” (Dow AgroSciences LLC, priority 2012, dated 2024).
Structures can show the parent of a compound that is named as a salt.

Tested on: honey mesquite (Prosopis glandulosa), weed bayer PRCJG
Experiment: Field trial, post-emergence foliar application, synergistic weed control (canopy control and mortality ratings, Colby's equation)
Format: in vivo
Protocol: In some embodiments, the damage or injury to the undesired vegetation caused by the compositions and methods disclosed herein is evaluated using a scale from 0% to 100%, when compared with the untreated control vegetation, wherein 0% indicates no damage to the undesired vegetation and 100% indicates complete destruction of the undesired vegetation.
X=effect in percent using (a) aminopyralid or an agriculturally acceptable salt or ester thereof at an application rate a;
Y=effect in percent using (b) clopyralid or an agriculturally acceptable salt or ester thereof at an application rate b;
E=expected effect (in %) of (a)+(b) at application rates a and b.
In Colby's equation, the value E corresponds to the effect (plant damage or injury) that is to be expected if the activity of the individual compounds is additive. If the observed effect is higher than the value E calculated according to the Colby equation, then a synergistic effect is present according to the Colby equation.
Field trials were conducted with applications made to established grassland with naturally occurring weed populations. The target plants were treated with postemergence foliar applications when they reached two to five feet tall. All treatments were applied using a nonrandomized trial design, with three replications per treatment.
[…] Spray solutions were prepared using an appropriate amount of dilution to form a 2 L aqueous spray solution with active ingredients in single and two way combinations. […] The treated plants were honey mesquite (Prosopis glandulosa). The treated plots and control plots were rated blind at various intervals after application. Ratings were based on a scale of 0-100%, wherein 0% indicates no damage to the canopy of the undesired vegetation and 100% indicates complete destruction of the canopy of undesired vegetation. Dead and live plants were counted and the mortality was calculated as a % of the total number of undesired plants per plot.
Colby's equation was used to determine the herbicidal effects expected from the mixtures, as described above. […] The herbicide tank mix combinations tested, application rates and ratios employed, plant species tested, and results are given below.

SMILES	Mean % weed mortality; Evaluation: % Canopy Control (Aminopyralid TIPA Salt alone 280 gae/ha, 81 days after treatment) [%]	Mean % weed mortality; Evaluation: % Canopy Control (Aminopyralid TIPA Salt alone 280 gae/ha, 82 days after treatment) [%]	Mean % weed mortality; Evaluation: % Mortality (Aminopyralid TIPA Salt alone 280 gae/ha, 385 days after treatment) [%]	Mean % weed mortality; Evaluation: % Mortality (Aminopyralid TIPA Salt alone 280 gae/ha, 386 days after treatment) [%]	Mean % weed mortality; Evaluation: % Canopy Control (Clopyralid MEA Salt alone 560 gae/ha, 82 days after treatment) [%]	Mean % weed mortality; Evaluation: % Mortality (Clopyralid MEA Salt alone 560 gae/ha, 385 days after treatment) [%]	Mean % weed mortality; Evaluation: % Mortality (Clopyralid MEA Salt alone 560 gae/ha, 386 days after treatment) [%]
Nc1cc(Cl)nc(C(=O)O)c1Cl [Aminopyralid TIPA Salt, 4-amino-3,6-dichloro-2-pyridinecarboxylic acid]	22.0	10.0	0	14			
O=C(O)c1nc(Cl)ccc1Cl [Clopyralid MEA Salt, 3,6-dichloro-2-pyridinecarboxylic acid]					25.0	25	7
